Measured values published in patent US9206156B2, “Substituted indole derivatives” (GRÜNENTHAL GMBH, priority 2008, dated 2015).

Legend:
ORL1 receptor = target: T1, ORL1 receptor (Homo sapiens, UniProt P41146); test: ORL1 receptor binding assay with 3H-nociceptin/orphanin FQ (WGA-SPA beads); conditions: c=1 μM test substance; 0.5 nM 3H-nociceptin/orphanin FQ; membranes of recombinant CHO-ORL1 cells
T1 construct: expressed in transfected cells; host or cells: CHO (recombinant CHO-ORL1 cells), membranes
T1 sequence (P41146 whole entry): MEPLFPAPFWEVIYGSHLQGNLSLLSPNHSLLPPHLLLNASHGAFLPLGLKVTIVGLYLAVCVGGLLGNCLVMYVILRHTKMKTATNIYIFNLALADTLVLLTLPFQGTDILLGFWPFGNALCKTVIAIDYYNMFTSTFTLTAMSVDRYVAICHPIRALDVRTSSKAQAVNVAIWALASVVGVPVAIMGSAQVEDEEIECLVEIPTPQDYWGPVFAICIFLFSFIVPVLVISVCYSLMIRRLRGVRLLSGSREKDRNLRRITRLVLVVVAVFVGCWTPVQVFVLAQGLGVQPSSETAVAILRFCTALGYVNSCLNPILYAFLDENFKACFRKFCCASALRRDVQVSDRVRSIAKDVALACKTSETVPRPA
Procedure, shortened: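 Radioligand displacement on membranes from recombinant CHO-ORL1 cells, 0.5 nM 3H-nociceptin/orphanin FQ, 20 μg membrane protein per batch in 50 mM Hepes pH 7.4, 10 mM MgCl2, 1 mM EDTA. Incubated 1 h at room temperature with WGA-SPA beads, scintillation read. Reported as Ki (nM) or % inhibition at 1 μM.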

human μ-opiate receptor = target: T2, human μ-opiate receptor (Homo sapiens, UniProt P35372); test: μ-opiate receptor binding assay with [3H] naloxone (WGA-SPA beads); conditions: 1 μmol/l test substance; 1 nmol/l [3H] naloxone; CHO-K1 cell membranes expressing human μ-opiate receptor
T2 construct: purchased NEN, Zaventem, Belgium RB-HOM; host or cells: CHO-K1 cells (membrane preparation)
T2 sequence (P35372 whole entry): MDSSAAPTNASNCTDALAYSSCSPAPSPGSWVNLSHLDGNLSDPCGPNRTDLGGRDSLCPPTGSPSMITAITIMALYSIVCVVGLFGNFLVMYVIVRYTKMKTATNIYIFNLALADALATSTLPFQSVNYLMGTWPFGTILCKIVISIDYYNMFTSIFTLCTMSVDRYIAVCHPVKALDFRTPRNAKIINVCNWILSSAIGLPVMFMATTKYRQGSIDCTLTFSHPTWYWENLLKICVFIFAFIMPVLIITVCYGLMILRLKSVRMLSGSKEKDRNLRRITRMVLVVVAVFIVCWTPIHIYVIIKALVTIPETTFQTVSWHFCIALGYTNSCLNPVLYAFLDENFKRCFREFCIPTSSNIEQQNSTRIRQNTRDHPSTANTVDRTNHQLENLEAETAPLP
Procedure, shortened: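 CHO-K1 membranes expressing human μ-opiate receptor incubated 90 min at room temperature with 1 nmol/l [3H]naloxone and WGA-SPA beads in 50 mmol/l Tris-HCl with 0.05% azide, 0.06% BSA. Non-specific binding with 25 μmol/l naloxone; % inhibition at 1 μmol/l, or IC50 converted to Ki via Cheng-Prusoff.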

| Structure (SMILES) | inhibition at 1 µM (ORL1 receptor) [%] | inhibition at 1 µM (human μ-opiate receptor) [%] | % Inhibition (ORL1) at 1 μM (ORL1 receptor) [%] | % Inhibition (μ) at 1 μM (human μ-opiate receptor) [%] |
| --- | --- | --- | --- | --- |
| CN(CCN1CCC(c2ccccc2)(N(C)C)CC1)C(=O)CCc1cn(C)c2ccccc12 [Example 14, N-(2-(4-(Dimethylamino)-4-phenylpiperidin-1-yl)ethyl)-N-methyl-3-(1-methyl-1H-indol-3-yl)propanamide] | 48 | 73 |  |  |
| CN(C)C1(c2cccs2)CCN(CCNC(=O)Cc2c[nH]c3cc(F)ccc23)CC1 [Example 8, N-(2-(4-(Dimethylamino)-4-(thiophen-2-yl)piperidin-1-yl)ethyl)-2-(6-fluoro-1H-indol-3-yl)acetamide] | 96 | 99 |  |  |
| CN(C(=O)CCc1c[nH]c2ccccc12)C(C(=O)N1CCC(c2cccs2)(N(C)C)CC1)c1ccccc1 (centres unmarked) [Example 110, N-(2-(4-(dimethylamino)-4-(thiophen-2-yl)piperidin-1-yl)-2-oxo-1-phenylethyl)-3-(1H-indol-3-yl)-N-methylpropanamide] | 60 | 92 |  |  |
| CN(Cc1ccc2[nH]ccc2c1)C(C(=O)N1CCC(c2cccs2)(N(C)C)CC1)c1ccccc1 (centres unmarked) [Example 147, 2-(((1H-indol-5-yl)methyl)(methyl)amino)-1-(4-(dimethylamino)-4-(thiophen-2-yl)piperidin-1-yl)-2-phenylethanone] | 27 | 47 |  |  |
| CN(C)C1(c2cccs2)CCN(CCNC(=O)c2ccc3ccn(C)c3c2)CC1 [Example 9, N-(2-(4-(Dimethylamino)-4-(thiophen-2-yl)piperidin-1-yl)ethyl)-1-methyl-1H-indole-6-carboxamide] | 77 | 101 |  |  |
| COc1ccc2[nH]cc(CNCCN3CCC(c4cccs4)(N(C)C)CC3)c2c1 [Example 76, 1-(2-((5-Methoxy-1H-indol-3-yl)methylamino)ethyl)-N,N-dimethyl-4-(thiophen-2-yl)pipendin-4-amine] |  |  | 93 | 99 |
| CN(CCN1CCC(c2ccccc2)(N2CCCC2)CC1)C(=O)c1ccc2ccn(C)c2c1 [Example 37, N,1-Dimethyl-N-(2-(4-phenyl-4-(pyrrolidin-1-yl)piperidin-1-yl)ethyl)-1H-indole-6-carboxamide] | 16 | 47 |  |  |
| CN(CCN1CCC(c2ccccc2)(N2CCCC2)CC1)C(=O)c1cc2cc(F)ccc2[nH]1 [Example 51, 5-Fluoro-N-methyl-N-(2-(4-phenyl-4-(pyrrolidin-1-yl)piperidin-1-yl)ethyl)-1H-indole-2-carboxamide] | 26 | 43 |  |  |
| CC(CC(=O)N(C)CCCN1CCC(c2cccs2)(N(C)C)CC1)c1c[nH]c2ccccc12 (centres unmarked) [Example 19, N-(3-(4-(Dimethylamino)-4-(thiophen-2-yl)piperidin-1-yl)propyl)-3-(1H-indol-3-yl)-N-methylbutanamide] | 59 | 89 |  |  |
| CN(CCCN1CCC(c2cccs2)(N(C)C)CC1)C(=O)CCc1c[nH]c2ccccc12 [Example 21, N-(3-(4-(Dimethylamino)-4-(thiophen-2-yl)piperidin-1-yl)propyl)-3-(1H-indol-3-yl)-N-methylpropanamide] | 62 | 87 |  |  |
| CN(C)C1(c2ccccc2)CCN(C(=O)CCNC(=O)CCc2c[nH]c3ccccc23)CC1 [Example 98, N-(3-(4-(dimethylamino)-4-phenylpiperidin-1-yl)-3-oxopropyl)-3-(1H-indol-3-yl)propanamide] | 73 | 85 |  |  |
| CN(CCN1CCC(c2ccccc2)(N(C)C)CC1)C(=O)c1ccc2cc[nH]c2c1 [Example 18, N-(2-(4-(Dimethylamino)-4-phenylpiperidin-1-yl)ethyl)-N-methyl-1H-indole-6-carboxamide] | 82 | 95 |  |  |
| CCCCC1(N(C)C)CCN(CCN(C)C(=O)Cc2c[nH]c3cc(F)ccc23)CC1 [Example 112, N-(2-(4-butyl-4-(dimethylamino)piperidin-1-yl)ethyl)-2-(6-fluoro-1H-indol-3-yl)-N-methylacetamide] | 59 | 92 |  |  |
